Values quoted from earlier work as cited in patent US6375930B2, “Membrane incorporation of texaphyrins” (Board of Regents, The University of Texas System, priority 1996, dated 2002).

Tests used:
[1] = Levy, Semin. Oncol. 1994
[2] = require hydrophobic vehicles for administration

Substance | duration of cutaneous photosensitivity [1] | solubility in aqueous solutions [2]
benzoporphyrin derivative [BPD verteporfin] | a few days | insoluble
tin purpurin |  | insoluble
porfimer sodium | up to 6 weeks | 
